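Five compound concentrations were applied to cells in 96-well plates for 48 hours; endpoints were derived by simple linear interpolation of the resulting dose-response curve. Definition used: TGI = concentration required for complete inhibition of growth.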

Data on 15 compounds can be found in PubChem BioAssay (NCI).

Among the test systems are OVCAR-8 ovarian; K-562 leukemia; HT29 colon; U251 CNS; MDA-MB-435; NCI/ADR-RES ovarian; TK-10 renal; SK-MEL-28 melanoma; SW-620 colon; EKVX NSCLC; OVCAR-4 ovarian; LOX IMVI melanoma.
Holding throughout (assay): NCI anticancer screen, dose series, 48 h

For the compound `O=C1C(Cl)=C(N2CCN(CCOCCO)CC2)C(=O)c2ccccc21`, the TGI in the assay with OVCAR-8 ovarian was 28.2 µM; with K-562 leukemia it was greater than 21.7 µM; in the assay on HT29 colon it was 30 µM; in the assay with U251 CNS, 31 µM; in the assay with MDA-MB-435, 12.8 µM; in the assay with NCI/ADR-RES ovarian, 25 µM. In addition, the TGI in the assay on TK-10 renal is 34.7 µM; in the assay on SK-MEL-28 melanoma, 32.1 µM; in the assay on SW-620 colon it was 3.09 µM; in the assay with EKVX NSCLC, 32.3 µM; in the assay on OVCAR-4 ovarian, 6.26 µM; in the assay with LOX IMVI melanoma, 17.7 µM.
Consider `CCCCCCCCCC(=O)NCCc1c[nH]c2ccc(OC)cc12`, for which the TGI is 32 µM with OVCAR-8 ovarian; greater than 100 µM with K-562 leukemia; greater than 100 µM in the assay on HT29 colon; 31.2 µM in the assay with U251 CNS; 60.3 µM in the assay on MDA-MB-435; 38.4 µM in the assay on NCI/ADR-RES ovarian. Moreover, the TGI in the assay on TK-10 renal is 35.1 µM; in the assay with SK-MEL-28 melanoma, 33.1 µM; in the assay on SW-620 colon, 34.5 µM; in the assay on EKVX NSCLC, 89.8 µM; in the assay on OVCAR-4 ovarian, greater than 100 µM; with LOX IMVI melanoma it was 27.6 µM.
For the compound `OCC(O)C(O)C(O)C(O)CNCCO/N=C1/C(c2c(O)[nH]c3ccccc23)=Nc2ccccc21` (stereo not given), the TGI in the assay with OVCAR-8 ovarian was greater than 50 µM; in the assay with K-562 leukemia it was 44.4 µM; in the assay on HT29 colon, greater than 50 µM; in the assay with U251 CNS, 39.8 µM; with MDA-MB-435, 20.4 µM; with NCI/ADR-RES ovarian it was greater than 50 µM. For the same compound, the TGI was greater than 50 µM with TK-10 renal; 20.7 µM with SK-MEL-28 melanoma; greater than 50 µM in the assay on SW-620 colon; greater than 50 µM in the assay on EKVX NSCLC; greater than 50 µM with OVCAR-4 ovarian; 17.3 µM in the assay on LOX IMVI melanoma.
As to `COc1ccc(N=C(CS(=O)c2ccc(C)cc2)C(F)(F)F)cc1` (stereo not given), the TGI with OVCAR-8 ovarian, in the assay with K-562 leukemia, in the assay on HT29 colon, with U251 CNS, in the assay on MDA-MB-435 and in the assay with NCI/ADR-RES ovarian was greater than 100 µM in each case. Moreover, the TGI in the assay with TK-10 renal, in the assay on SK-MEL-28 melanoma, in the assay with SW-620 colon, in the assay with EKVX NSCLC, in the assay with OVCAR-4 ovarian and with LOX IMVI melanoma was greater than 100 µM in each case.
On to `CC(C)C1CC(CO)(CNc2nc(N)nc(Cl)c2/C=N\O)C1` (stereo not given), for which the TGI in the assay on OVCAR-8 ovarian was 50.3 µM; with K-562 leukemia, greater than 100 µM; with HT29 colon it was 15.5 µM; with U251 CNS, 39.6 µM; in the assay with MDA-MB-435, 28.9 µM; with NCI/ADR-RES ovarian it was 27.5 µM. Also, the TGI with TK-10 renal turned out to be 61.1 µM; in the assay on SK-MEL-28 melanoma, 26.1 µM; with SW-620 colon, 61.2 µM; in the assay on EKVX NSCLC, 11.7 µM; in the assay on OVCAR-4 ovarian it was 28.3 µM; in the assay on LOX IMVI melanoma it was 22.5 µM.
As to `O=S(=O)(Nc1nccs1)c1ccc([As](=O)(O)O)cc1`, the TGI in the assay on OVCAR-8 ovarian, in the assay on K-562 leukemia, in the assay on HT29 colon, in the assay with U251 CNS, in the assay on MDA-MB-435 and in the assay on NCI/ADR-RES ovarian was greater than 100 µM each time. Also, the TGI with TK-10 renal, in the assay with SK-MEL-28 melanoma, in the assay on SW-620 colon, with EKVX NSCLC, in the assay with OVCAR-4 ovarian and with LOX IMVI melanoma was greater than 100 µM in each case.
As for `CC1(c2nc3ccccc3[nH]2)CCC(C#N)C(C)(C)O1` (stereo not given), the TGI in the assay with OVCAR-8 ovarian, in the assay with K-562 leukemia, with HT29 colon, in the assay with U251 CNS, with MDA-MB-435 and with NCI/ADR-RES ovarian was greater than 100 µM each time. For the same compound, the TGI in the assay with TK-10 renal, in the assay with SK-MEL-28 melanoma, in the assay with SW-620 colon, in the assay with EKVX NSCLC, with OVCAR-4 ovarian and in the assay with LOX IMVI melanoma was greater than 100 µM in each case.
Turning to `N#CC(NNC(=O)c1c(Cl)c(Cl)c(Cl)c(Cl)c1-c1nc2ccc(C(=O)c3ccccc3)cc2[nH]1)c1ccccc1` (stereo not given), the TGI with OVCAR-8 ovarian is greater than 100 µM; in the assay on K-562 leukemia, 19.3 µM; in the assay on HT29 colon, greater than 100 µM; in the assay on U251 CNS it was greater than 100 µM; with MDA-MB-435, 15.3 µM; in the assay on NCI/ADR-RES ovarian, 32.2 µM. The TGI with TK-10 renal was 90.8 µM; in the assay on SK-MEL-28 melanoma, greater than 100 µM; with SW-620 colon, greater than 100 µM; with EKVX NSCLC, greater than 100 µM; in the assay with OVCAR-4 ovarian it was greater than 100 µM; with LOX IMVI melanoma it was 87.9 µM.
Consider `CC(C)=CC1C(COC(=O)c2ccccc2Cl)C1(C)C` (stereo not given), for which the TGI with OVCAR-8 ovarian was greater than 100 µM; in the assay on K-562 leukemia it was greater than 100 µM; with HT29 colon, greater than 100 µM; with U251 CNS, 90.2 µM; in the assay with MDA-MB-435, greater than 100 µM; in the assay with NCI/ADR-RES ovarian it was greater than 100 µM. Besides, the TGI in the assay with TK-10 renal was greater than 100 µM; in the assay with SK-MEL-28 melanoma, greater than 100 µM; with SW-620 colon it was greater than 100 µM; in the assay with EKVX NSCLC, 92.6 µM; in the assay with OVCAR-4 ovarian, greater than 100 µM; with LOX IMVI melanoma, 38.9 µM.
Take `COc1ccc(Cc2cc(OC)c(OC)c(OC)c2)cc1`: the TGI was 27 µM in the assay on OVCAR-8 ovarian; 22 µM with K-562 leukemia; 8.25 µM with HT29 colon; 34.3 µM with U251 CNS; greater than 100 µM in the assay on MDA-MB-435; greater than 100 µM with NCI/ADR-RES ovarian. The TGI in the assay on TK-10 renal is greater than 100 µM; with SK-MEL-28 melanoma, greater than 100 µM; in the assay with SW-620 colon, greater than 100 µM; in the assay with EKVX NSCLC it was greater than 100 µM; with OVCAR-4 ovarian it was greater than 100 µM; in the assay on LOX IMVI melanoma it was greater than 89.7 µM.
Take `Cc1ccc(S(=O)(=O)NN=C2C(C)(C)CC2(C)C)cc1`: the TGI in the assay on OVCAR-8 ovarian, in the assay with K-562 leukemia, with HT29 colon, in the assay on U251 CNS, with MDA-MB-435 and in the assay on NCI/ADR-RES ovarian was greater than 100 µM throughout. Further, the TGI with TK-10 renal, in the assay on SK-MEL-28 melanoma, in the assay on SW-620 colon, with EKVX NSCLC, in the assay on OVCAR-4 ovarian and in the assay on LOX IMVI melanoma was greater than 100 µM in each case.
`COc1ccc(OC)c(N=Cc2cc(OC)c(OC)c(OC)c2)c1`: the TGI in the assay on OVCAR-8 ovarian is greater than 100 µM; in the assay with K-562 leukemia, greater than 100 µM; in the assay with HT29 colon, greater than 100 µM; with U251 CNS, greater than 100 µM; in the assay with MDA-MB-435 it was greater than 76.2 µM; with NCI/ADR-RES ovarian it was greater than 100 µM. Besides, the TGI in the assay with TK-10 renal, in the assay with SK-MEL-28 melanoma, in the assay on SW-620 colon, in the assay with EKVX NSCLC, in the assay on OVCAR-4 ovarian and in the assay with LOX IMVI melanoma was greater than 100 µM throughout.
In the case of `CCC(=O)N(c1ccccc1)C(C)CN1CCC(O)(c2cccc(C(F)(F)F)c2)CC1` (stereo not given), the TGI in the assay with OVCAR-8 ovarian was greater than 100 µM; with K-562 leukemia, 75.4 µM; in the assay with HT29 colon, 27.2 µM; with U251 CNS, greater than 100 µM; with MDA-MB-435, 42 µM; with NCI/ADR-RES ovarian it was 53.4 µM. For the same compound, the TGI in the assay on TK-10 renal is 73.3 µM; in the assay on SK-MEL-28 melanoma it was 61.2 µM; with SW-620 colon it was greater than 100 µM; in the assay on EKVX NSCLC, greater than 100 µM; in the assay on OVCAR-4 ovarian, greater than 100 µM; with LOX IMVI melanoma, 35 µM.
Take `CC(O)CC(=O)CO[C@H]1[C@H](O)[C@@H](O)[C@@H](O)[C@@H]2NC(=O)c3c(cc4c(c3O)OCO4)[C@H]21` (stereo not given in full): the TGI was found to be 1.53 µM in the assay on OVCAR-8 ovarian; 4.14 µM with K-562 leukemia; 0.179 µM with HT29 colon; 0.307 µM with U251 CNS; 0.175 µM in the assay on MDA-MB-435; 27.6 µM in the assay with NCI/ADR-RES ovarian. In addition, the TGI in the assay with TK-10 renal is 0.238 µM; in the assay on SK-MEL-28 melanoma it was 8.03 µM; in the assay with SW-620 colon, greater than 100 µM; in the assay on EKVX NSCLC, 0.14 µM; with OVCAR-4 ovarian, 0.287 µM; with LOX IMVI melanoma, 0.117 µM.
In the case of `O=[N+]([O-])c1ccc(Cc2nc3cc4ccccc4cc3[nH]2)cc1C(F)(F)F`, the TGI in the assay with OVCAR-8 ovarian was 48.5 µM; with K-562 leukemia, 30.3 µM; in the assay with HT29 colon, greater than 100 µM; in the assay on U251 CNS, 37.3 µM; in the assay on MDA-MB-435, 21 µM; in the assay with NCI/ADR-RES ovarian it was 23.9 µM. Moreover, the TGI is 35.8 µM in the assay with TK-10 renal; greater than 100 µM with SK-MEL-28 melanoma; 62.2 µM in the assay on SW-620 colon; greater than 100 µM in the assay with EKVX NSCLC; 46.8 µM in the assay on OVCAR-4 ovarian; greater than 100 µM with LOX IMVI melanoma.
